Source: patent US9593123B2, “Triazolo[4,5-D]pyrimidine derivatives” (Hoffmann-La Roche Inc., priority 2013, dated 2017)

Columns and labels:
human CB1 receptor = human CB1 receptor (Homo sapiens (Human), UniProt P21554); assay: cAMP assay, CHO cells expressing human CB1 receptors; assay type: cell-based; settings: functional cAMP assay, read-out: CB1 hcAMP EC50
Summary of the method: (§1)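 Compound exposure lasted 30 min at 30 °C in IBMX (1 mM)-containing Krebs Ringer bicarbonate buffer, applied to human CB1- or CB2-expressing CHO cells. Lysates were read by time-resolved FRET cAMP detection, converted via cAMP standard curve (10 μM–0.13 nM), and EC50 values calculated.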

human CB2 receptor = human CB2 receptor (Homo sapiens (Human), UniProt P34972); assay: cAMP assay, CHO cells expressing human CB2 receptors; assay type: cell-based; settings: functional cAMP assay, read-out: CB2 hcAMP EC50
Sequence of human CB2 receptor (P34972 whole entry): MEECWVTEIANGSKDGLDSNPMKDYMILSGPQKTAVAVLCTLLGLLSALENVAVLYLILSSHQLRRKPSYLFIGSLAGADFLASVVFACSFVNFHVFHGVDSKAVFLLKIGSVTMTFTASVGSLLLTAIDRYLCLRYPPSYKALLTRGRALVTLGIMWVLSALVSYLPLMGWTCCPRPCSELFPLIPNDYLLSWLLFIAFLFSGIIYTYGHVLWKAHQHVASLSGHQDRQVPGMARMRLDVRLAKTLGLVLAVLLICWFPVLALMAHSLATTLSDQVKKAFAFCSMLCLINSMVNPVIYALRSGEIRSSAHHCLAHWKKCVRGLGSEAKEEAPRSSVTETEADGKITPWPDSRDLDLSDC
Summary of the method: as §1

Sequence of human CB1 receptor (P21554 whole entry): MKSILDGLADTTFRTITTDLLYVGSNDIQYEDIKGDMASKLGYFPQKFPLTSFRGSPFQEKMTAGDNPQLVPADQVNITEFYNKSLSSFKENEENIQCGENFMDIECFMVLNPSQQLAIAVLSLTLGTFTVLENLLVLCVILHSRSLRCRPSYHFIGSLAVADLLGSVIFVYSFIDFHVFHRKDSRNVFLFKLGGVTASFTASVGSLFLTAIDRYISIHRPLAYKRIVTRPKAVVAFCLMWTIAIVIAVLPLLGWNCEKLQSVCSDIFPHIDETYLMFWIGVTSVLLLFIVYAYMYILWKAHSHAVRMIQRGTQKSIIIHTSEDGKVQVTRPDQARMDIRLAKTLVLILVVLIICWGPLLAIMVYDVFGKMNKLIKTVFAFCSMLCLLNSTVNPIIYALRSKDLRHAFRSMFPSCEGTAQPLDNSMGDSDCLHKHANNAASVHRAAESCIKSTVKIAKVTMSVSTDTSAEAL

SMILES | EC50 (human CB1 receptor) | EC50 (human CB2 receptor)
CC(C)(C)Nc1nc(N2CCC(F)(F)C2)c2nnn(Cc3ncccc3Cl)c2n1 [Example 24, N-tert-Butyl-3-[(3-chloropyridin-2-yl)methyl]-7-(3,3-difluoropyrrolidin-1-yl)triazolo [4,5-d]pyrimidin-5-amine] | > 10 µM | 0.0034 µM
CC(C)(C)CNc1nc(N2CCC(F)(F)C2)c2nnn(Cc3ccccc3Cl)c2n1 [Example 16, 3-[(2-Chlorophenyl)methyl]-7-(3,3-difluoropyrrolidin-1-yl)-N-(2,2-dimethylpropyl) triazolo[4,5-d]pyrimidin-5-amine] | > 10 µM | 0.0031 µM
CC(F)(F)COc1nc(N2CCC(F)(F)C2)c2nnn(Cc3ccccc3Cl)c2n1 [Example 53, 3-[(2-Chlorophenyl)methyl]-5-(2,2-difluoropropoxy)-7-(3,3-difluoropyrrolidin-1-yl)triazolo[4,5-d]pyrimidine] | > 10 µM | 0.0055 µM
Cn1nnnc1Cn1nnc2c(N3CC[C@H](O)C3)nc(NC(C)(C)C)nc21 [Example 29, (3S)-1-[5-(tert-Butylamino)-3-[(1-methyltetrazol-5-yl)methyl]triazolo[4,5-d]pyrimidin-7-yl]pyrrolidin-3-ol] | > 10 µM | 0.0486 µM
CC(C)(C)COc1nc(N2CCC(F)(F)C2)c2nnn(Cc3ccccc3S(C)(=O)=O)c2n1 [Example 66, 7-(3,3-Difluoropyrrolidin-1-yl)-5-(2,2-dimethylpropoxy)-3-[(2-methylsulfonylphenyl)methyl]triazolo[4,5-d]pyrimidine] | > 10 µM | 0.0039 µM
FC1(F)CCN(c2nc(OC3CCC3)nc3c2nnn3Cc2ccccc2Cl)C1 [Example 48, 3-[(2-Chlorophenyl)methyl]-5-cyclobutyloxy-7-(3,3-difluoropyrrolidin-1-yl)triazolo[4,5-d]pyrimidine] | > 10 µM | 0.0017 µM
CC(O)CS(=O)(=O)c1nc(N2CCC(F)(F)C2)c2nnn(Cc3ccccc3Cl)c2n1 (centres unmarked) [Example 95, 1-[3-[(2-Chlorophenyl)methyl]-7-(3,3-difluoropyrrolidin-1-yl)triazolo[4,5-d]pyrimidin-5-yl]sulfonylpropan-2-ol] | > 10 µM | 0.0644 µM
C[C@H](Oc1nc(N2CCC(F)(F)C2)c2nnn(Cc3ccccc3Cl)c2n1)C(F)(F)F [Example 42, 3-[(2-Chlorophenyl)methyl]-7-(3,3-difluoropyrrolidin-1-yl)-5-[(2S)-1,1,1-trifluoropropan-2-yl]oxytriazolo[4,5-d]pyrimidine] | > 10 µM | 0.0033 µM
C[C@]1(O)CCN(c2nc(N3CCOCC3)nc3c2nnn3Cc2ccccc2Cl)C1 [Example 32, (3S)-1-[3-[(2-Chlorophenyl)methyl]-5-morpholino-triazolo[4,5-d]pyrimidin-7-yl]-3-methyl-pyrrolidin-3-ol] | > 10 µM | 0.0096 µM
CC1(COc2nc(N3CCC(F)(F)C3)c3nnn(Cc4ccccc4Cl)c3n2)COC1 [Example 50, 3-[(2-Chlorophenyl)methyl]-7-(3,3-difluoropyrrolidin-1-yl)-5-[(3-methyloxetan-3-yl)methoxy]triazolo[4,5-d]pyrimidine] | > 10 µM | 0.0028 µM
C[C@H](Oc1nc(N2CCC(F)(F)C2)c2nnn(Cc3ncccc3Cl)c2n1)C(F)(F)F [Example 70, 3-[(3-Chloropyridin-2-yl)methyl]-7-(3,3-difluoropyrrolidin-1-yl)-5-[(2S)-1,1,1-trifluoropropan-2-yl]oxytriazolo[4,5-d]pyrimidine] | > 10 µM | 0.0051 µM
CC(C)c1nc(N2CCC(F)(F)C2)c2nnn(Cc3ccccc3Cl)c2n1 [Example 3, 3-[(2-Chlorophenyl)methyl]-7-(3,3-difluoropyrrolidin-1-yl)-5-isopropyl-triazolo[4,5-d]pyrimidine] | 0.77 µM | 0.0005 µM
FC1(F)CCN(c2nc(C3CCC3)nc3c2nnn3Cc2ccccc2Cl)C1 [Example 1, 3-[(2-Chlorophenyl)methyl]-5-cyclobutyl-7-(3,3-difluoropyrrolidin-1-yl)triazolo[4,5-d]pyrimidine] | > 10 µM | 0.001 µM
CN(c1nc(N2CCC(F)(F)C2)c2nnn(Cc3ccccc3Cl)c2n1)C1CCC1 [Example 18, 3-[(2-Chlorophenyl)methyl]-N-cyclobutyl-7-(3,3-difluoropyrrolidin-1-yl)-N-methyltriazolo[4,5-d]pyrimidin-5-amine] | 0.967 µM | 0.0081 µM
COc1ccc(Cn2nnc3c(N4CC[C@](C)(O)C4)nc(NC(C)(C)C)nc32)cc1 [Example 30, (3S)-1-[5-(tert-Butylamino)-3-[(4-methoxyphenyl)methyl]triazolo[4,5-d]pyrimidin-7-yl]-3-methylpyrrolidin-3-ol] | > 10 µM | 0.0899 µM
C[C@]1(O)CCN(c2nc(N3CCOCC3)nc3c2nnn3Cc2ccccc2C(F)(F)F)C1 [Example 33, (3S)-3-Methyl-1-[5-morpholin-4-yl-3-[[2-(trifluoromethyl)phenyl]methyl]triazolo[4,5-d]pyrimidin-7-yl]pyrrolidin-3-ol] | > 10 µM | 0.0072 µM
C=C(C)c1nc(N2CC[C@H](O)C2)c2nnn(Cc3ccccc3Cl)c2n1 [Example 6, (3S)-1-[3-[(2-Chlorophenyl)methyl]-5-prop-1-en-2-yltriazolo[4,5-d]pyrimidin-7-yl]pyrrolidin-3-ol] | > 10 µM | 0.0036 µM
CC(=O)N[C@H]1CCN(c2nc(OCC(C)(C)C)nc3c2nnn3Cc2ncccc2Cl)C1 [Example 78, N-[(3S)-1-[3-[(3-Chloropyridin-2-yl)methyl]-5-(2,2-dimethylpropoxy)triazolo[4,5-d]pyrimidin-7-yl]pyrrolidin-3-yl]acetamide] | > 10 µM | 0.168 µM
C[C@H](Oc1nc(N2CCC(F)(F)C2)c2nnn(Cc3nnnn3C3CC3)c2n1)C(F)(F)F [Example 76, 3-[(1-Cyclopropyltetrazol-5-yl)methyl]-7-(3,3-difluoropyrrolidin-1-yl)-5-[(2S)-1,1,1-trifluoropropan-2-yl]oxytriazolo[4,5-d]pyrimidine] | > 10 µM | 0.0177 µM
